Data on one molecule can be found in EPA's ToxValDB 9.5 (doi:10.2903/j.efsa.2014.3353).

A value given as a limit tells only on which side of the number the result lay.

In one series the test system is Cyprinodon variegatus. Conditions: acute; duration: 96 hours; mortality.
The next series relates to Daphnia magna. The conditions noted are these: chronic/long-term; duration: 21 days; mobility.
In a further series the test system is Apis mellifera. Conditions: acute, duration: 48 hours, mortality.
The subject of a further series is Tagia sp. Conditions: acute; duration: 14 days; mortality.
In the next series the test system is Oryctolagus sp. Conditions: reproduction developmental; body weight.
The subject of the next series is Pimephales promelas. Conditions: chronic/long-term; duration: 28 days; growth.
In the next series the test system is Bibionidae. The conditions noted are these: chronic/long-term; duration: 28 days; development.
Another series has as its system Colinus virginianus. Conditions: for LD50: acute, oral, mortality.

For the molecule `COc1cc(OC)nc(NC(=O)NS(=O)(=O)Nc2ccccc2C(=O)N(C)C)n1` [Orthosulfamuron], the LC50 with Cyprinodon variegatus is more than 123 µg/mL; in the series with Apis mellifera (oral, unspecified) it was more than 109 µg/piece; with Tagia sp., more than 1000 mg/kg. In addition, the LD50 is more than 5000 mg/kg-day with Rattus norvegicus (acute, oral, mortality); more than 100 µg/piece in the series with Apis mellifera (dermal); more than 936 mg/kg-day in the series with Colinus virginianus (duration: 5 days, diet); more than 2000 mg/kg-day with Colinus virginianus. The NOAEL is 5 mg/kg-day in the series on Rattus norvegicus (chronic, duration: 2 years, other); 70.8 mg/kg-day with Rattus norvegicus (reproduction developmental, mobility); 5 mg/kg-day with Rattus norvegicus (reproduction developmental, other); 75 mg/kg-day in the series on Oryctolagus sp.. Also, in the series with Rattus norvegicus (subchronic, duration: 90 days, oral, immunology), the LOAEL stood at 19 mg/kg-day. The NOEC in the series on Daphnia magna came to 10 mg/L; with Pimephales promelas, 6.1 mg/L; in the series with Bibionidae, 66.9 mg/L; in the series with Colinus virginianus (reproduction developmental, duration: 21 weeks) it was 112 mg/kg-day.

The NOAEL is the highest tested level that showed no adverse finding. Broadly, the LOAEL is the lowest tested level that showed an adverse finding.
